# Literature values, collected in patent publication US9151747B1, “Sucralose antibody and immunoassay” (Mercyhurst University, priority 2013, dated 2015).
# Tests used:
# [1] = background statement
# [2] = background statement; remark: listed apart in the source
smiles,measurement,setting,value
"OC[C@H]1O[C@H](O[C@]2(CCl)O[C@H](CCl)[C@@H](O)[C@@H]2O)[C@H](O)[C@@H](O)[C@H]1Cl [Sucralose, sucralose]",breakdown by the human body,[1],minimal breakdown
same,sweetness relative to table sugar,[2],600 times
